# Assay results taken from US10206911B2, “Androgen receptor variants and methods for making and using” (MEMORIAL SLOAN-KETTERING CANCER CENTER, priority 2012, dated 2019).
# Residue numbers refer to the chain shown, from its start. Entries after “also recorded” stand apart in the source; their conditions may differ.
# Assays:
# [1] = tested on: VCaP cells overexpressing AR WT; test: VCaP growth assay (CellTiter-GLO); type: cell-based, human; details: full-serum containing media, 10 μM
# [2] = tested on: VCaP cells overexpressing AR F876L; test: VCaP growth assay (CellTiter-GLO); type: cell-based, human; details: full-serum containing media, 10 μM
# [3] = target: T1, AR F876L (Homo sapiens, UniProt P10275, DEL79-80/DUP473-473/F877L); test: EGFP reporter assay of AR activity, LNCaP-Pb.PSE.EGFP cells, flow cytometry; type: cell-based; details: 10 μM, 4 days of treatment
# T1 construct: expressed in transfected cells
# T1 sequence (P10275 with tags, fused parts or gaps DEL79-80/DUP473-473/F877L): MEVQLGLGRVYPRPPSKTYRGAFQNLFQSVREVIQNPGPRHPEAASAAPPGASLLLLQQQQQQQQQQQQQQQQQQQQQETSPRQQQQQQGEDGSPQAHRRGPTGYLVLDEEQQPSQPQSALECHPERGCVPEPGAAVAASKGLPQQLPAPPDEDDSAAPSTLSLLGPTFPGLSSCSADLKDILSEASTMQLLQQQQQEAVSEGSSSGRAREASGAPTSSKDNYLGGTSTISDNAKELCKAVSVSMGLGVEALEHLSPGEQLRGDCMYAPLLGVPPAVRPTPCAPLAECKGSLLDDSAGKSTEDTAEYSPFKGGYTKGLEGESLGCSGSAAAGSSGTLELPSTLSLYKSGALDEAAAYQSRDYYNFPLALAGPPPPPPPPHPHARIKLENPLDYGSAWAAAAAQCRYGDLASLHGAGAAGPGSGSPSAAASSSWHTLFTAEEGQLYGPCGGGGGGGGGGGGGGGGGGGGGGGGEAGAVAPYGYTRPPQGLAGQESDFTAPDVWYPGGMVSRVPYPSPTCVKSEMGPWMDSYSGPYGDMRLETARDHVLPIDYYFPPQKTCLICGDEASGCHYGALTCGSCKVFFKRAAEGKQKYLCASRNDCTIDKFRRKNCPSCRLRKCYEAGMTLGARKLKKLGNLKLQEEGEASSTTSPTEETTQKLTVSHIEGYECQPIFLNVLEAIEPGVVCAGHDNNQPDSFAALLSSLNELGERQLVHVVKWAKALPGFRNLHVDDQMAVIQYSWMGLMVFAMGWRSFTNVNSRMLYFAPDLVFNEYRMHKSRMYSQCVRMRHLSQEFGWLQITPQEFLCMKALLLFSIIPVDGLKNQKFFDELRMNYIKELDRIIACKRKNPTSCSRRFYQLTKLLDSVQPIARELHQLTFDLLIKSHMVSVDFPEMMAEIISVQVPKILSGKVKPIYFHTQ
# Excerpt: (§1) This clone was used for all flow cytometry assays and for the FACS-based resistance screens.
# [4] = target: T2, AR WT (Homo sapiens, UniProt P10275, DEL79-80/DUP473-473); test: as above; type: cell-based; details: 10 μM, 4 days of treatment
# T2 construct: expressed in transfected cells; host or cells: LNCaP-Pb.PSE.EGFP (pantropic retroviral infection, blasticidin selection)
# T2 sequence (P10275 with tags, fused parts or gaps DEL79-80/DUP473-473): T1 sequence (P10275 with tags, fused parts or gaps DEL79-80/DUP473-473/F877L) with L876F
# Excerpt: as §1
# [5] = tested on: VCaP cells expressing AR WT and AR F876L; test: Western blot of AR signaling and PARP cleavage in VCaP cells; type: cell-based, human; details: 10 μM, 4 days, media containing FBS
# Procedure: Fetal bovine serum (FBS) and charcoal-stripped, dextran-treated fetal bovine serum (CSS) were purchased from Omega Scientific. […] Serial dilutions of all drugs were made using DMSO. Antibodies used for immunoblot assays were b-actin (AC-15, Sigma) PARP (#9543; Cell Signaling Technology), FKBP5 (IHC-00289, Bethyl), b-tubulin (D-10) and androgen receptor (N-20) (both from Santa Cruz Biotechnology). Protein lysates were prepared in M-PER protein extraction reagent (Pierce) or 1% SDS buffer. The chromatin immunoprecipitation assay was conducted using a kit (Upstate) with an antibody for androgen receptor (PG-21, Upstate). Nontarget and mouse AR siRNA pools were from the ON-TARGETplus collection (Dharmacon).
# [6] = tested on: CWR22PC cells expressing AR F876L; test: CWR22PC cell viability (CellTiterGLO); type: cell-based, human; details: full serum media; days 1, 4, and 7
# Procedure: CellTiterGLO assay was performed on days 1, 4, and 7 to measure cell viability. […] CellTiterGLO assay was performed on days 1, 4, and 7 to measure cell viability.
# CellTiterGLO assay was performed on days 1, 4, and 7 to determine cell viability. RLU=relative light units.
# [7] = tested on: CWR22PC cells expressing AR WT; test: CWR22PC cell viability (CellTiterGLO); type: cell-based, human; details: full serum media; days 1, 4, and 7
# Procedure: […]. […] CellTiterGLO assay was performed on days 1, 4, and 7 to measure cell viability. […] CellTiterGLO assay was performed on days 1, 4, and 7 to measure cell viability.
# […]. […] CellTiterGLO assay was performed on days 1, 4, and 7 to determine cell viability. RLU=relative light units.
# [8] = tested on: DU145 (an AR null human prostate cancer cell line); test: DU145 cell viability (CellTiterGLO); type: cell-based; details: 10 μM, full serum containing media
# Procedure: DU145 cells were cultured in full serum containing media with 10 uM of the indicated antiandrogens. CellTiterGLO assay was performed on days 0, 3, and 6 to determine cell viability. RLU=relative light units.
smiles,measurement,setting,value
"CNC(=O)c1ccc(N2C(=S)N(c3ccc(C#N)c(C(F)(F)F)c3)C(=O)C23CCCC(C)(C)C3)cc1F (racemic) [(±)-DR103, 4-(3-(4-cyano-3-(trifluoromethyl)phenyl)-7,7-dimethyl-4-oxo-2-thioxo-1,3-diazaspiro[4.5]decan-1-yl)-2-fluoro-N-methylbenzamide]","Growth of VCaP cells, AR WT",[1],inhibited the growth
same,"Growth of VCaP cells, AR WT",[1]; listed as (+)-DR103,effectively inhibits the growth of both models
same,Growth of VCaP cells overexpressing AR F876L,[2],inhibited the growth
same,Growth of VCaP cells overexpressing AR F876L,[2]; listed as (+)-DR103,effectively inhibits the growth of both models
same,Effect on transcriptional activity of AR F876L in EGFP reporter assay (agonism or antagonism),[3],effectively antagonized; also recorded: potently inhibited
same,Effect on transcriptional activity of AR WT in EGFP reporter assay (agonism or antagonism),[4],effectively antagonized
same,Endogenous AR signaling (Western blot),[5],inhibited endogenous AR signaling
same,PARP cleavage (Western blot),[5],induced PARP cleavage
same,Endogenous AR signaling (Western blot),[5]; listed as DR103,efficiently inhibits AR signaling
same,PARP cleavage (Western blot),[5]; listed as DR103,induces PARP cleavage
same,Growth/viability of CWR22PC cells expressing AR F876L,[6],growth inhibition
same,"Growth/viability of CWR22PC cells, AR WT",[7],growth inhibition
same,Proliferation of DU145 cells,[8]; listed as (+)-DR103,did not impact the proliferation
same,Proliferation of DU145 cells,[8]; listed as DR103,no significant growth inhibition
